System: A-431
Test: Cytotoxicity against human A431 cells after 4 days by coulter counting
Type: functional, cell-based
Settings: A-431, 96 h

| Compound | IC50 [µM] |
| --- | --- |
| C/C1=C\C[C@@H](/C(C)=C/C=C/C(C)(C)O)CC/C(C)=C/CC1 [EUNICOL] | 0.35 |
| C/C1=C\C[C@@H](C2=CC[C@H](C(C)(C)O)OC2)CC/C(C)=C/CC1 [CYCLOLOBATRIENE] | 0.64 |
| C=C[C@@]1(C)CC[C@H](C2=CC[C@H](C(C)(C)O)OC2)C[C@@H]1C(=C)C [LOBATRIENE] | 0.41 |
| C=C[C@@]1(C)CC[C@H](/C(C)=C/C=C/C(C)(C)O)C[C@@H]1C(=C)C [FUSCOL] | 0.52 |

From ChEMBL document CHEMBL1926524, “Cyclolobatriene, a novel prenylated germacrene diterpene, from the soft coral Lobophytum pauciflorum” (Bioorg Med Chem, 2012)
